Test results from patent publication US6365616B1, “Methimazole derivatives and tautomeric cyclic thiones to treat autoimmune diseases” (Sentron Medical, Inc., priority 1998, dated 2002).
Where two headings read alike, the source gives them in different places.

Tests used:
Assay type in all cases: cell-based, rat
MHC class I RNA = experiment: Northern analysis of MHC class I RNA levels in FRTL-5 cells; details: 40 hours; for inhibition at 100 µM / inhibition at 1000 µM / inhibition at 5000 µM: Rattus norvegicus, FRTL-5
[1] = tested on: protein/DNA complex with Fragment 127 of the MHC class I 5′-flanking region; experiment: Gel shift (EMSA) with downstream 127 class I probe, extracts from treated FRTL-5 cells; details: 5H cells treated 48 hours
Procedure: (§1) Cells were grown in 6H medium with 5 % calf serum for 6-7 days to 70-80% confluence, then shifted to 5H medium with 5 % calf serum for 5 days. TSH (1×10^−10 M), gamma-interferon (100 U/ml), MMI (5 mM), and different concentrations of MMI derivatives or tautomeric cyclic thiones (0.0001 to 10 mM) were added as appropriate for […]. Cells were then harvested and extracts were made by a modification of a method of Dignam, J., et al. Methods in Enzymology, 101:582-598 (1983). In brief, cells were harvested by scraping after being washed twice with cold phosphate-buffer saline (PBS). Subsequently they were pelleted, washed in cold PBS and then pelleted again. The pellet was resuspended in Dignam buffer C (20 mM Hepes buffer at pH 7.9, 1.5 mM MgCl2, 0.42 M NaCl, 25% glycerol, 0.5 mM dithiotreitol (DTT), 0.5 mM phenylmethylsulfonylfluoride (PMSF), 1 […] pepstatin). The final NaCl concentration was adjusted on the basis of cell pellet volume to 0.42 M and cells were lysed by repeated cycles of freezing and thawing. Extracts were then centrifuged at 10,000×g at 4° C. for 20 min. The supernatant was recovered, aliquoted and stored at −70° C.
(§2) Binding reactions were performed in a volume of 20 μl for 30 min at room temperature. The typical reaction mixture contained 1.5 fmol of ^32P DNA, 3 μg of cell extracts, 1 to 3 μg of poly (dI-dC) in 10 mM Tris-Cl (pH 7.9), 1 mM MgCl2, 1 mM DTT, 1 mM ethylenediamine tetra acetic acid (EDTA), and 5 % glycerol. After incubation, reaction mixtures were subjected to electrophoresis in 4% polyacrylamide gels for 90-120 min at 160 V in 0.5× TBE (Sambrook, J., et al., Molecular Cloning: A Laboratory Manual, 2nd ed. Cold Spring Harbor Press, NY, 2: 11.23-11.44 (1989)), then dried and autoradiographed. Probes were labeled with [α32P] deoxy CTP by Klenow enzyme (In Vitro labeling kit, Amersham) following the manufacturer's instructions, or by [γ^32P] ATP using T4 polynucleotide kinase. Labeled probes were then purified either through G-50 columns (5 prime→3 Prime) or on an 8% polyacrylamide gel.
FIG. 3 denotes the sequence of the downstream region of the PD1 promoter. The location of enhancer A (−180 to −170 bp), the interferon response element (IRE; −161 to −150 bp), and the cAMP response element (CRE; −107 to −100 bp) are noted. The downstream silencer is between −127 and −80 bp (Saji, et al., ibid, 20096-20107 (1997)). Using a 127 bp probe, −125 to +1 bp, MMI (lane 4) or TSH (lane 10) induce the formation of a rapidly migrating protein/DNA complex (FIG. 4) which is clearly evident 24 to 48 h after SH cells are treated. MMI derivatives can also increase this complex, as illustrated for compound 8 in FIG. 4 (lanes 1 to 3). The time most suitable for measurement is 24 to 48 h (FIG. 4) the complex can be quantitated by comparison to control (lane 7 or 9) using densitometry or the phosphoimager as noted earlier. In this case, the increase over control (set at 1) is measured in arbitrary units relative to the maximal increase induced by 5 mM MMI which is arbitrarily set at 10. The results using all 11 compounds in Table 1, each added to cells at different concentrations 48 hours before extracts were prepared, are summarized in Table 3.

[2] = tested on: silencer complex with Fragment 140 (upstream silencer/enhancer) of the MHC Class I PD1 5′-flanking region; experiment: Gel shift (EMSA) with upstream 140 class I probe, extracts from treated FRTL-5 cells; details: 5H cells treated 48 hours
Procedure: FRTL-5 rat thyroid cells (Kohn, L. D., et al., U.S. Pat. No. 4,609,622 (1986); Ambesi-Impiombato E S., U.S. Pat. No. 4,608,341 (1986)) are grown as described below. […] Their doubling time was approximately 36±6 hours; and, after 6 days in medium with no TSH (5H) and 5.0% serum, […] TSH elevated iodide uptake 8-10 fold and thymidine incorporation>10 fold. Cells were diploid, between their 5th and 25th passage in most experiments, and were routinely grown in Coon's modified F12 medium supplemented with 5 % calf serum, 1 mmol/L nonessential amino acids (GIBCO) and a mixture of 6 hormones (6H medium): TSH (1×10^−10 M), insulin (10 μg/ml), hydrocortisone 0.4 ng/ml, human transferrin (5 μg/ml), somatostatin ([…]) and glycyl-L-histidyl-L-lysine acetate (10 ng/ml) (Kohn, L. D. et al., U.S. Pat. No. 4,609,622 (1986); Ambesi-Impiombato, E. S., U.S. Pat. No. 4,608,341 (1986)). They were passaged every 7-10 days and provided fresh media every 2 or 3 days. In individual experiments, cells were grown to near confluency in 6H medium then, in some experiments, were shifted to medium with no TSH (5H), to medium with neither TSH and or insulin (4H), or to medium with no TSH, no insulin and no hydrocortisone (3H) plus either 5% or 0.2% serum for 4-7 days before use.
as §1, §2
The effect of the addition of 5 mM MMI to cells for 48 hours prior to extract preparation from cells maintained in SH medium is shown in lane 1 of FIG. 2. The effect of the addition of 1 mM concentration of representative MMI derivatives to cells maintained in 5H medium for 48 hours prior to extract preparation is shown in lanes 3 to 8 in FIG. 2. The structures and names of the representative numbered compounds are in Table 1. The MMI or its derivatives decrease the silencer complex. The decrease can be quantitated by densitometry of autoradiograms or phosphoimaging on a Bas 1500 imager (for example). […]

[3] = 100 μM, 100 U/ml γ-interferon, 6H medium (TSH), read-out: % inhibition of class I RNA expression (γ-interferon-treated)
[4] = 100 μM, basal, 5H medium, read-out: % inhibition of class I RNA expression (basal)
[5] = 1 mM, 100 U/ml γ-interferon, 6H medium (TSH), read-out: % inhibition of class I RNA expression (γ-interferon-treated)
[6] = 1 mM, basal, 5H medium, read-out: % inhibition of class I RNA expression (basal)
[7] = 5 mM, 100 U/ml γ-interferon, 6H medium (TSH), read-out: % inhibition of class I RNA expression (γ-interferon-treated)
[8] = 100 μM, 100 U/ml γ-interferon, 6H medium (TSH)

| SMILES | inhibition at 100 µM (MHC class I RNA; [3]) | inhibition at 100 µM (MHC class I RNA; [4]) | inhibition at 1000 µM (MHC class I RNA; [5]) | inhibition at 1000 µM (MHC class I RNA; [6]) | inhibition at 5000 µM (MHC class I RNA; [7]) | % increase over control relative to the maximal (5 mM) MMI-increased silencer complex which is set at 10 ([1]; 10 μM) | % increase over control relative to the maximal (5 mM) MMI-increased silencer complex which is set at 10 ([1]; 100 μM) | % increase over control relative to the maximal (5 mM) MMI-increased silencer complex which is set at 10 ([1]; 1 mM) | % inhibition of control silencer complex formation ([2]; 10 μM) | % inhibition of control silencer complex formation ([2]; 100 μM) | % inhibition of control silencer complex formation ([2]; 1 mM) | % inhibition of class I RNA expression (γ-interferon-treated) (MHC class I RNA; [8]) | % inhibition of class I RNA expression (basal) (MHC class I RNA; 100 μM, basal, 5H medium) | % inhibition of class I RNA expression (γ-interferon-treated) (MHC class I RNA; 1 mM, 100 U/ml γ-interferon, 6H medium (TSH)) | % inhibition of class I RNA expression (basal) (MHC class I RNA; 1 mM, basal, 5H medium) | % inhibition of class I RNA expression (γ-interferon-treated) (MHC class I RNA; 5 mM, 100 U/ml γ-interferon, 6H medium (TSH)) | inhibition at 5000 µM (MHC class I RNA; 5 mM, basal, 5H medium, read-out: % inhibition of class I RNA expression (basal)) | % increase over control relative to the maximal (5 mM) MMI-increased silencer complex which is set at 10 ([1]; 5 mM) | % inhibition of control silencer complex formation ([2]; 5 mM) |
| --- | --- | --- | --- | --- | --- | --- | --- | --- | --- | --- | --- | --- | --- | --- | --- | --- | --- | --- | --- |
| CSc1nccn1C [Compound 7, S-Methylmethimazole] | 14 ± 11% | 10 ± 8% | 40 ± 15% | 46 ± 9% | 69 ± 6% | 0% | 2 ± 1% | 6 ± 0.5% | 0% | 10 ± 13% | 50 ± 9% |  |  |  |  |  |  |  |  |
| Cn1ccn(C)c1=S [Compound 8, N-Methylmethimazole] |  |  |  |  |  | 0% | 3 ± 2% | 9 ± 1% | 0% | 18 ± 18% | 70 ± 14% | 9 ± 7% | 14 ± 12% | 49 ± 13% | 60 ± 6% | 73 ± 12% |  |  |  |
| Cc1cnc(S)n1C [Compound 9, 5-Methylmethimazole] |  |  | 9 ± 5% | 15 ± 14% | 24 ± 6% | 0% | 0% | 1.5 ± 1.5% | 0% | 0% | 15 ± 15% | None | None |  |  |  | 30 ± 5% | 2.5 ± 1% | 30 ± 20% |
| Cn1c(-c2ccccc2)cnc1S [Compound 10, 5-Phenylmethimazole] | 42 ± 14% | 60 ± 8% | 60 ± 12% | 85 ± 16% |  | 3 ± 1.5% | 7 ± 1% | 10 ± 1% | 25% | 60 ± 10% | 85 ± 15% |  |  |  |  |  |  |  |  |
